The target in one data set is human 5-HT6 receptor (Homo sapiens (Human), UniProt P50406). Nature of the data set: radioligand binding assay (SPA format), [N-methyl-3H]-LSD. The following applies: read-out: human 5HT6 Ki, human 5-HT6 receptor membranes, 10 nM [3H]-LSD.
The next data set has as its target 5HT6 receptor (Rattus norvegicus (Rat), UniProt P31388). The experiment in a line: ex vivo receptor occupancy measurements. The following applies: oral dosing at 30 mg/kg, Sprague-Dawley rats. Format: in vivo. Here is the method:
This table illustrates representative compounds tested for 5HT6 affinity in the human binding assay. […] Example 158 had 42% occupancy of the 5HT6 receptor after oral dosing at 30 mg/kg using ex vivo receptor occupancy measurements in Sprague-Dawley rats.

Data on 15 molecules can be found in patent US8575186B2, “Epiminocycloalkyl[b] indole derivatives as serotonin sub-type 6 (5-HT6) modulators and uses thereof” (Albany Molecular Research, Inc., priority 2009, dated 2013).

The term Ki denotes the dissociation constant of the complex between target and ligand, obtained from inhibition or displacement. The term melting point denotes the temperature, or range, at which the solid turns liquid.

Read-outs that look alike come from different tables or passages of the source.

Sequence of human 5-HT6 receptor (P50406 whole entry): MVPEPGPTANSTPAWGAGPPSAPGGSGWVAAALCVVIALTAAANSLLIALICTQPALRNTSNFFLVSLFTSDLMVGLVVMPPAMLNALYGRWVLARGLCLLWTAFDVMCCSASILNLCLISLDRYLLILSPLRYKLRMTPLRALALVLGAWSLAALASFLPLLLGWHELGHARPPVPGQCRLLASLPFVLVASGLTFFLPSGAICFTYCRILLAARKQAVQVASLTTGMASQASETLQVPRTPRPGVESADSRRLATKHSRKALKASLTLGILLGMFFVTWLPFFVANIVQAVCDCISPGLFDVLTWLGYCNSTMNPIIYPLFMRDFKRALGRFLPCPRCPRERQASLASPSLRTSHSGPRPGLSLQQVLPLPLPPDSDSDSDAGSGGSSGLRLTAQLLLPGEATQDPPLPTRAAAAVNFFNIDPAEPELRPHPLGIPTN
Sequence of 5HT6 receptor (P31388 whole entry): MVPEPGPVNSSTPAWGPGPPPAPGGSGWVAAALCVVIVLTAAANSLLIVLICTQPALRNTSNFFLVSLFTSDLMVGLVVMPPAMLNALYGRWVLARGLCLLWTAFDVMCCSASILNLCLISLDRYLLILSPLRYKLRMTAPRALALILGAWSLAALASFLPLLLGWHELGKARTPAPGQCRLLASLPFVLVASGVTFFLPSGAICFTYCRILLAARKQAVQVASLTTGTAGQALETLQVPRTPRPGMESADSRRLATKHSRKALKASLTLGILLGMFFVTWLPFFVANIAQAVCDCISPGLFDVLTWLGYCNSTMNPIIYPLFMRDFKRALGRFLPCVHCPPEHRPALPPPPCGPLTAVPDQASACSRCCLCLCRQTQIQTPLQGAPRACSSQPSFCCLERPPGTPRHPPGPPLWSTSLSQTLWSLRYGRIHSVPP

As to `Cn1c2c(c3cc(S(=O)(=O)c4cccc(Cl)c4)ccc31)C1CCC(C2)N1` (stereo not drawn) [Example 158], the Ki on human 5-HT6 receptor came to 1.9 nM. In addition, the receptor occupancy at 30 mg/kg at 5HT6 receptor was found to be 42%.

For the molecule `Cl.Cn1c2c(c3cc(S(=O)(=O)c4cccc(OC(F)F)c4)ccc31)C1CCC(C2)N1` (stereo not drawn) [Example 40, 2-(3-Difluoromethoxyphenyl)sulfonyl-5-methyl-5,6,7,8,9,10-hexahydro-7,10-epiminocyclohepta[b]indole hydrochloride], the melting point is 186 to 190 °C (dec.). The Ki on human 5-HT6 receptor was 5.8 nM.

`Cc1cn(S(=O)(=O)c2ccc3c(c2)c2c(n3C)CC3CCC2N3)c2ccccc12.Cl` (stereo not drawn) [Example 68, 2-[1-(3-Methyl)-indole]sulfonyl-5-methyl-5,6,7,8,9,10-hexahydro-7,10-epiminocyclohepta[b]indole hydrochloride]: the melting point lay in the range of 212 to 215 °C. For the same molecule, at human 5-HT6 receptor (hydrochloride), the Ki amounted to 1.2 nM.

Turning to `Cl.Cn1c2c(c3cc(S(=O)(=O)n4cc(Cl)c5ccccc54)ccc31)C1CCC(C2)N1` (stereo not drawn) [Example 67, 2-[1-(3-Chloro)-indole]sulfonyl-5-methyl-5,6,7,8,9,10-hexahydro-7,10-epiminocyclohepta[b]indole hydrochloride], the melting point is 204 to 206 °C. For the same molecule, on human 5-HT6 receptor, the Ki amounted to 4.1 nM.

`Cc1cc(S(=O)(=O)c2ccc(N)cc2)cc2c3c(n(C)c12)CC1CCC3N1.Cl` (stereo not drawn) [Example 77, 2-(4-Amino-phenyl)sulfonyl-4,5-dimethyl-5,6,7,8,9,10-hexahydro-7,10-epiminocyclohepta[b]indole hydrochloride]: the melting point was 244 to 246 °C. The Ki on human 5-HT6 receptor worked out at 4.9 nM.

`Cl.Cn1c2c(c3cc(S(=O)(=O)c4cc(Cl)cc(Cl)c4)ccc31)C1CCC(C2)N1` (stereo not drawn) [Example 54, 2-(3,5-Dichlorophenyl)sulfonyl-5-methyl-5,6,7,8,9,10-hexahydro-7,10-epiminocyclohepta[b]indole hydrochloride] came in with a melting point of 190 to 195 °C. Also, the Ki at human 5-HT6 receptor is 10 nM.

For `Cc1cc(S(=O)(=O)c2ccccc2)cc2c3c(n(C)c12)CC1CCC3N1.Cl` (stereo not drawn) [Example 71, 2-Phenylsulfonyl-4,5-dimethyl-5,6,7,8,9,10-hexahydro-7,10-epiminocyclohepta[b]indole hydrochloride], the melting point is 244 to 248 °C. Also, the Ki on human 5-HT6 receptor amounted to 3.3 nM.

Molecule `Cl.O=S(=O)(c1ccccc1)c1ccc2c(c1)c1c(n2-c2ccccc2)CC2CCC1N2` (stereo not drawn) [Example 88, 2-Phenylsulfonyl-5-phenyl-5,6,7,8,9,10-hexahydro-7,10-epiminocyclohepta[b]indole hydrochloride] yielded a melting point of 195 to 200 °C. Besides, the Ki at human 5-HT6 receptor amounted to 350 nM.

Turning to `Cc1cc(S(=O)(=O)c2cccc(C(F)(F)F)c2)cc2c3c(n(C)c12)CC1CCC3N1.Cl` (stereo not drawn) [Example 75, 2-(3-Trifluoromethyl-phenyl)sulfonyl-4,5-dimethyl-5,6,7,8,9,10-hexahydro-7,10-epiminocyclohepta[b]indole hydrochloride], the melting point lay in the range of 227 to 229 °C. Also, the Ki at human 5-HT6 receptor came to 3.6 nM.

As to `Cl.Cn1c2c(c3cc(S(=O)(=O)c4cccnc4)ccc31)C1CCC(C2)N1` (stereo not drawn) [Example 61, 2-(3-Pyridine)sulfonyl-5-methyl-5,6,7,8,9,10-hexahydro-7,10-epiminocyclohepta[b]indole hydrochloride], the melting point fell in the range of 226 to 228 °C. At human 5-HT6 receptor, the Ki amounted to 156 nM.

In turn, `Cl.Cn1c2c(c3cc(S(=O)(=O)c4ccccn4)ccc31)C1CCC(C2)N1` (stereo not drawn) [Example 60, 2-(2-Pyridine)sulfonyl-5-methyl-5,6,7,8,9,10-hexahydro-7,10-epiminocyclohepta[b]indole hydrochloride] had a melting point of 222 to 225 °C. Besides, the Ki on human 5-HT6 receptor was determined as 193 nM.

In the case of `Cl.Cn1c2c(c3cc(S(=O)(=O)c4cc(F)cc(F)c4)ccc31)C1CCC(C2)N1` (stereo not drawn) [Example 55, 2-(3,5-Difluorophenyl)sulfonyl-5-methyl-5,6,7,8,9,10-hexahydro-7,10-epiminocyclohepta[b]indole hydrochloride], the melting point was 230 to 235 °C (dec.). Besides, the Ki at human 5-HT6 receptor came out at 8.5 nM.

`Cl.Cn1c2c(c3cc(S(=O)(=O)c4ccccc4)cc(F)c31)C1CCC(C2)N1` (stereo not drawn) [Example 81, 2-(Phenylsulfonyl)-4-fluoro-5-methyl-5,6,7,8,9,10-hexahydro-7,10-epiminocyclohepta[b]indole hydrochloride]: the melting point is 251 to 256 °C (dec.). Moreover, on human 5-HT6 receptor, the Ki turned out to be 13 nM.

Molecule `Cl.Cn1c2c(c3ccc(S(=O)(=O)c4ccccc4)cc31)C1CCC(C2)N1` (stereo not drawn) [Example 91, 3-Phenylsulfonyl-5-methyl-5,6,7,8,9,10-hexahydro-7,10-epiminocyclohepta[b]indole hydrochloride] registered a melting point of 252 to 256 °C. Also, at human 5-HT6 receptor, the Ki was 115 nM.

Consider `CN1C2CCC1c1c(n(C)c3ccc(S(=O)(=O)c4ccsc4)cc13)C2.Cl` (stereo not drawn) [Example 70, 2-(3-thienyl)sulfonyl-5-methyl-5,6,7,8,9,10-hexahydro-7,10-N-methyl-epiminocyclohepta[b]indole hydrochloride], for which the melting point fell in the range of 238 to 240 °C. Also, the Ki at human 5-HT6 receptor stood at 8.2 nM.
